Experimental data: patent US20250250218A1, “Anti-Amyloidogenic Curcumin Analogues” (MCPHS University, priority 2024, published 2025)
Each block holds one compound with its values, some of them ahead of it.

How the values were obtained:
Aβ1-42 peptide = Aβ1-42 peptide (Homo sapiens, UniProt P05067); experiment: Thioflavin T (ThT) fluorescence assay of Aβ1-42 aggregation (SensoLyte kit); type: biochemical; conditions: Aβ1-42 35 μM, minimum of five concentrations, read-out: IC50, inhibition of Aβ aggregation (anti-amyloidogenic activity)
Description: All newly synthesized compounds were screened for their anti-amyloidogenic activity on Aβ1-42 peptides, using Phenol Red as the internal standard—all at 100 μM. […] To obtain the IC50 values (shown in FIGS. 4A-4D), all compounds were tested at a minimum of five different concentrations.
Samples of ThT (final concentration of 200 μM) and Aβ1-42 peptide (final concentration of 35 μM) were incubated at 37° C. in a black clear bottom 96-well plate. The ThT fluorescence intensity of each sample was immediately measured every 5 min for 120 min, with 440/485 nm excitation/emission filters and with 15 sec shaking between reads to facilitate aggregation. An inhibitor control containing Aβ1-42 and a supplied aggregation inhibitor (Phenol Red), at a final concentration of 100 μM. The positive control contained Aβ1-42 without an inhibitor. […] All the wells were brought to 100 μL as a final volume.

[1] = test system: Drosophila melanogaster UAS-Aβ 1-42/nSyb-Gal4; experiment: Forced climbing assay in transgenic flies overexpressing Aβ; type: in vivo
Text: To produce the transgenic Drosophila line of interest, UAS-Aβ42 1-42 female virgins were crossed with nSyb-Gal4 males. UAS-Aβ42 1-42 has a TM3, Sb balancer on the third chromosome, resulting in the mutant Sb gene, indicative of stubble bristles as a dominant marker. When crossed with the driver line, such as nSyb-Gal4, the transgenic line will either be UAS-Aβ42 1-42/nSyb-Gal4 or nSyb-Gal4/TM3, Sb. […] All offspring with the inherited balanced nSyb-Gal4TM3, Sb were negatively selected. Once enough F1 progeny of the transgenic line of interest were available, testing of the compounds was carried out. The extended chalcones of interest were dissolved in DMSO to a concentration of 5 mg/mL. […] These three concentrations were then introduced to each respective group. […] A forced climbing assay was conducted on the transgenic flies exposed to the extended chalcone compounds. […] The climbing assay was conducted five times a day, beginning on the seventh day after the flies were exposed to the compounds. Vials were marked with top, middle, and bottom sections, separated by one inch.

Aβ42 = experiment: Human Aβ42 ELISA on heads of treated transgenic flies; type: in vivo; conditions: any concentration fed (1, 10, 100 mcg/mL)
Description: To perform the ELISA, the samples were first thawed on ice. A protease inhibitor cocktail with AEBSF (a serine protease inhibitor) was added to each sample, with a final concentration of 1 mM, and were then centrifuged to remove the large particulate matter. After centrifugation, samples were diluted with Standard Diluent Buffer at a 1:50 ratio to ensure sample concentrations would be within the range of the standard curve. […] After 30 min, the solution was thoroughly aspirated, and the wells were washed four times with Ix Wash Buffer. Stabilizing Chromogen (100 mcL) was added to each well and the plate was incubated in the dark. After 30 min, 100 mcL of the Stop Solution was added to every well and the plate was read immediately at an absorbance of 450 nm.
Absorbance measurements for each sample and control were averaged, and from the calibration curve the corresponding level of AB was determined. Data were analyzed using a one-way ANOVA. […] Thus, the physiological benefit observed when the flies were fed either Compound 25, 33, or 34 at varying concentrations, was most likely a result of a decrease in brain plaque burden.

SH-SY5Y cells = experiment: MTT cell viability assay (neurotoxicity and neuroprotection); conditions: 48 h; for decrease in cell viability, compound co-administered with Aβ42: compound at IC50 concentration + Aβ42 20 μM, Aβ42 alone […]%; for cytotoxicity / neurotoxicity of compound alone: compound at its IC50 concentration
Description: To test neurotoxicity and neuroprotective effects of the compounds, a 3-(4,5-dimethylthiazol-2-yl)-2,5-diphenyltetrazolium bromide (MTT) assay was performed using compounds 25, 33, and 34 as described [8].
SH-SY5Y cells (CRL-2266, ATCC, Manassas, VA) were maintained in SH-SY5Y cells (CRL-2266, ATCC, Manassas, VA, USA) were maintained in Dulbecco's Modified Eagle's Medium and Ham's F-12 Medium (DMEM: F12) supplemented with 50 mL fetal bovine serum (10%) and incubated at 37° C., 5% CO2, and 90% humidity. For the MTT assay, cells were sub-cultured using trypsin-ethylenediaminetetraacetic acid (EDTA) (0.25%) solution into clear 96-well plates and allowed to adhere for 24 h. […] All groups were incubated for 48 h.
The MTT assay (Ab211091, Abcam, Waltham, MA, USA) was used to measure cell viability with metabolically active cells reducing the MTT reagent into insoluble formazan. Following the removal of the treatment media, 50 μL of serum-free media and 50 riL of MTT Reagent was added to each well. The plate was then incubated at 37° C. for 3 h. After incubation, 150 μL of MTT Solvent was added into each well. The plate was then wrapped in foil and placed on an orbital plate shaker for 15 min. The absorbance was read at 590 nm.

[2] = 1 mcg/mL fly food, control 4.33%
[3] = 1 mcg/mL fly food, control approximately 95%

Aβ1-42 peptide, sequence (P05067 672-713 limits assumed): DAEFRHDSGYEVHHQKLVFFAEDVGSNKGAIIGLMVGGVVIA

IC50 (Aβ1-42 peptide): 1100 nM
Compound: O=C(/C=C/C=C/c1ccc(N2CCCCC2)cc1)c1ccc(Cl)cc1 [Compound 33, (2E,4E)-1-(4-chlorophenyl)-5-(4-(piperidin-1-yl)phenyl)penta-2,4-dien-1-one]
percentage of flies in top section after 10 s ([1]; 1 mcg/mL fly food, control 0.33%): 8.00%
percentage of flies in middle section after 10 s [1, 2]: 26.00%
percentage of flies in bottom section after 10 s [1, 3]: 66.00%
percentage climbing compared to control, bottom, 95% CI ([1]; 1 mcg/mL, FIG. 8): 18.63-40.04
percentage climbing compared to control, middle, 95% CI ([1]; 1 mcg/mL, FIG. 8): −29.70-−13.63
percentage climbing compared to control, top, 95% CI ([1]; 1 mcg/mL, FIG. 8): −12.8-−2.516
percentage of flies in bottom section after 10 s ([1]; 10 mcg/mL fly food): 74.00%
percentage of flies in middle section after 10 s ([1]; 10 mcg/mL fly food): 22.33%
percentage climbing compared to control, bottom, 95% CI ([1]; 10 mcg/mL, FIG. 8): 10.63-32.04
percentage climbing compared to control, middle, 95% CI ([1]; 10 mcg/mL, FIG. 8): −26.04-−9.964
change in levels of Aβ in fly heads (ELISA) (Aβ42): no statistically significant change
decrease in cell viability, compound co-administered with Aβ42 (SH-SY5Y cells): 52%
cytotoxicity / neurotoxicity of compound alone (SH-SY5Y cells): no cytotoxicity

IC50 (Aβ1-42 peptide): 1500 nM
Compound: CSc1ccc(C(=O)/C=C/C=C/c2ccc(N(C)C)cc2)cc1 [Compound 18, (2E,4E)-5-(4-(dimethylamino)phenyl)-1-(4-(methylthio)phenyl)penta-2,4-dien-1-one]

IC50 (Aβ1-42 peptide): 910 nM
Compound: CN(C)c1ccc(/C=C/C=C/C(=O)c2cc(Cl)cc(Cl)c2)cc1 [Compound 25, (2E,4E)-1-(3,5-dichlorophenyl)-5-(4-(dimethylamino)phenyl)penta-2,4-dien-1-one]
percentage of flies in middle section after 10 s [1, 2]: 15.56%
percentage of flies in bottom section after 10 s [1, 3]: 82.15%
percentage climbing compared to control, bottom, 95% CI ([1]; 1 mcg/mL, FIG. 8): 1.543-24.82
percentage climbing compared to control, middle, 95% CI ([1]; 1 mcg/mL, FIG. 8): −18.97-−3.487
change in levels of Aβ in fly heads (ELISA) (Aβ42): no statistically significant change
decrease in cell viability, compound co-administered with Aβ42 (SH-SY5Y cells): 52%
cytotoxicity / neurotoxicity of compound alone (SH-SY5Y cells): no cytotoxicity

IC50 (Aβ1-42 peptide): 3200 nM
Compound: COc1ccc(C(=O)/C=C/C=C/c2ccc(N(C)C)cc2)cc1 [Compound 15, (2E,4E)-5-(4-(dimethylamino)phenyl)-1-(4-methoxyphenyl)penta-2,4-dien-1-one]

Compound: (2E,4E)-1-(4-chlorophenyl)-5-(4-(piperidin-1-yl)phenyl)penta-2,4-dien-1-one [Compound 34]
IC50 (Aβ1-42 peptide): 620 nM
percentage of flies in bottom section after 10 s ([1]; 10 mcg/mL fly food): 82.50%
percentage of flies in middle section after 10 s ([1]; 10 mcg/mL fly food): 15.00%
percentage climbing compared to control, middle, 95% CI ([1]; 10 mcg/mL, FIG. 8): −18.78-−2.558
percentage of flies in bottom section after 10 s ([1]; 100 mcg/mL fly food): 81.26%
percentage of flies in middle section after 10 s ([1]; 100 mcg/mL fly food): 14.90%
percentage climbing compared to control, bottom, 95% CI ([1]; 100 mcg/mL, FIG. 8): 3.395-24.75
percentage climbing compared to control, middle, 95% CI ([1]; 100 mcg/mL, FIG. 8): −18.67-−2.463
change in levels of Aβ in fly heads (ELISA) (Aβ42): no statistically significant change
decrease in cell viability, compound co-administered with Aβ42 (SH-SY5Y cells): 60%
cytotoxicity / neurotoxicity of compound alone (SH-SY5Y cells): no cytotoxicity

IC50 (Aβ1-42 peptide): 2400 nM
Compound: CN(C)c1ccc(C=CC=CC(=O)c2ccc(Cl)cc2)cc1 [Compound 3]
